Assay results taken from EPA's ToxRefDB 2.

How the values were obtained:
rat [1] = details: Prenatal developmental toxicity study, other, Oral, Gavage/Intubation, dose end: 15 GD
mouse [2] = details: Carcinogenicity, other, Oral, Feed, dose end: 18 month, group: systemic
rat [3] = details: Multigenerational reproductive toxicity study, other, Oral, Feed, dose end: 2 generation
rat [4] = details: Combined chronic toxicity/carcinogenicity, sprague dawley, Oral, Feed, dose end: 24 month, group: systemic
dog [5] = details: Subchronic oral toxicity in nonrodent, beagle, Feed, dose end: 13 week, group: systemic
rabbit [6] = details: Prenatal developmental toxicity study, other, Oral, Gavage/Intubation, dose end: 19 GD
dog [7] = details: Chronic toxicity, beagle, Oral, Feed, dose end: 52 week, group: systemic
rat [8] = details: Subchronic oral toxicity in rodents, other, Feed, dose end: 3 month, group: systemic, systemic / clinical chemistry / alkaline phosphatase (alp/alk) / alkaline phosphatase (alp/alk) + systemic / in life observation / body …
rat [9] = details: Prenatal developmental toxicity study, sprague dawley, Oral, Feed, dose end: 22 GD
mouse [10] = details: Subchronic oral toxicity in rodents, cd1, Feed, dose end: 91 day, group: systemic
rat [11] = details: Prenatal developmental toxicity study, sprague dawley, Oral, Gavage/Intubation, dose end: 21 GD
rat [12] = details: Combined chronic toxicity/carcinogenicity, sprague dawley, Oral, Feed, dose end: 24 month, group: systemic; remark: listed apart in the source
rat [13] = details: Subchronic oral toxicity in rodents, sprague dawley, Feed, dose end: 14 week, group: systemic
rat [14] = details: Subchronic oral toxicity in rodents, other, Feed, dose end: 13 week, group: systemic
dog [15] = details: Chronic toxicity, beagle, Oral, Feed, dose end: 52 week, group: systemic; remark: listed apart in the source
rabbit [16] = details: Prenatal developmental toxicity study, new zealand white, Oral, Gavage/Intubation, dose end: 28 GD
rat [17] = details: Subchronic oral toxicity in rodents, sprague dawley, [Not Specified], dose end: 90 day, group: systemic
rat [18] = details: Subchronic oral toxicity in rodents, sprague dawley, Feed, dose end: 13 week, group: systemic
mouse [19] = details: Carcinogenicity; cd1; Oral; Feed; dose end: 18 month; group: systemic; systemic / in life observation / body weight / body weight gain + systemic / in life observation / clinical signs / fur (altered appearance…
dog [20] = details: Subchronic oral toxicity in nonrodent, beagle, Feed, dose end: 13 week, group: systemic, systemic / hematology / anemia / anemia - hemolytic + systemic / hematology / erythrocyte (rbc) count differential / erythrocyte (rbc) + …
rat [21] = details: Prenatal developmental toxicity study, sprague dawley, Oral, Gavage/Intubation, dose end: 21 GD; remark: listed apart in the source
[22] = group: developmental, developmental / developmental malformation / bone / incomplete ossification
[23] = group: developmental, developmental / developmental malformation / bone / incomplete ossification + developmental / developmental malformation / bone / dumbbell …
[24] = group: maternal, systemic / in life observation / body weight / body weight gain + systemic / in life observation / food consumption / food consumption
[25] = systemic / in life observation / body weight / body weight + systemic / organ weight / spleen / relative to body weight
[26] = group: offspring, developmental / developmental landmark / eye opening / eye opening + systemic / in life observation / body weight / offspring (pup) weight
[27] = group: parental, systemic / organ weight / liver / relative to body weight
[28] = systemic / pathology microscopic / liver / hypertrophy
[29] = systemic / pathology microscopic / liver / hypertrophy + systemic / clinical chemistry / albumin / albumin + systemic / clinical chemistry…
[30] = systemic / clinical chemistry / alkaline phosphatase (alp/alk) / alkaline phosphatase (alp/alk) + systemic / organ weight / liver / absolute…
[31] = systemic / organ weight / liver / relative to body weight
[32] = group: developmental, developmental / developmental malformation / bone / full supernumerary
[33] = group: developmental, developmental / developmental malformation / bone / full supernumerary + developmental / developmental malformation / bone / extra …
[34] = group: maternal, systemic / in life observation / body weight / body weight gain + systemic / in life observation / food consumption / food consumption + …
[35] = systemic / hematology / anemia / anemia - nos + systemic / clinical chemistry / cholesterol / cholesterol + systemic / clinical chemistry / …
[36] = group: developmental, systemic / in life observation / body weight / fetal weight
[37] = group: maternal, systemic / in life observation / body weight / body weight + systemic / in life observation / body weight / body weight gain + systemic / in…
[38] = group: maternal, systemic / in life observation / body weight / body weight gain
[39] = systemic / in life observation / body weight / body weight + systemic / in life observation / body weight / body weight gain + systemic / in…
[40] = systemic / pathology microscopic / spleen / pigmentation
[41] = systemic / hematology / erythrocyte (rbc) count differential / erythrocyte (rbc) + systemic / hematology / hematocrit (hct) / hematocrit (…
[42] = systemic / in life observation / body weight / body weight gain
[43] = systemic / in life observation / body weight / body weight gain + systemic / in life observation / body weight / body weight + systemic / in…
[44] = systemic / hematology / erythrocyte (rbc) count differential / erythrocyte (rbc) + systemic / hematology / heinz body / heinz body + …
[45] = systemic / organ weight / liver / absolute + systemic / organ weight / liver / relative to body weight + systemic / organ weight / liver / …
[46] = group: developmental, developmental / developmental malformation / bone / incomplete ossification + systemic / in life observation / body weight / fetal weight
[47] = systemic / hematology / methemoglobin / methemoglobin
[48] = systemic / pathology microscopic / spleen / hematopoietic cell proliferation + systemic / pathology microscopic / spleen / pigmentation

With CC1=NNC(=O)N(/N=C/c2cccnc2)C1 [Pymetrozine] the LEL (rat [1]; [22]) was 30 mg/kg/day, the NEL (rat [1]; [22]) was < 30 mg/kg/day and the LOAEL (rat [1]; [23]) was 300 mg/kg/day. The NOAEL (rat [1]; [23]) was 100 mg/kg/day, the LEL (rat [1]; [24]) was 100 mg/kg/day and the LOAEL (rat [1]; [24]) was 100 mg/kg/day. The NEL (rat [1]; [24]) was 30 mg/kg/day, the NOAEL (rat [1]; [24]) was 30 mg/kg/day and the NOAEL (mouse [2]; systemic / in life observation / body weight / body weight + systemic / organ weight / liver / relative to body weight + systemic / …) was 12 mg/kg/day. For the same compound, the LEL (mouse [2]; [25]) was 1.2 mg/kg/day, the NEL (mouse [2]; [25]) was < 1.2 mg/kg/day and the LOAEL (mouse [2]; systemic / organ weight / liver / relative to body weight + systemic / pathology microscopic / liver / hypertrophy + systemic / pathology …) was 250 mg/kg/day. For the same compound, the LEL (rat [3]; [26]) was 100 mg/kg/day, the LOAEL (rat [3]; [26]) was 100 mg/kg/day and the NEL (rat [3]; [26]) was 10 mg/kg/day. The NOAEL (rat [3]; [26]) was 10 mg/kg/day, the LEL (rat [3]; [27]) was 1.7 mg/kg/day and the NEL (rat [3]; [27]) was < 1.7 mg/kg/day. The LOAEL (rat [3]; group: parental, systemic / pathology microscopic / liver / hypertrophy) was 13.9 mg/kg/day, the NOAEL (rat [3]; group: parental, systemic / pathology microscopic / liver / hypertrophy + systemic / in life observation / body weight / body weight + systemic / in life …) was 1.4 mg/kg/day and the LEL (rat [4]; [28]) was 3.76 mg/kg/day. The LOAEL (rat [4]; [28]) was 3.76 mg/kg/day, the NEL (rat [4]; [29]) was 0.377 mg/kg/day and the NOAEL (rat [4]; [29]) was 0.377 mg/kg/day. For the same compound, the LOAEL (dog [5]; [30]) was 14 mg/kg/day, the NOAEL (dog [5]; [30]) was 3.12 mg/kg/day and the LEL (dog [5]; [31]) was 3.12 mg/kg/day. For the same compound, the NEL (dog [5]; [31]) was < 3.12 mg/kg/day, the LEL (rabbit [6]; [32]) was 75 mg/kg/day and the LOAEL (rabbit [6]; [32]) was 75 mg/kg/day. The NEL (rabbit [6]; [33]) was 10 mg/kg/day, the NOAEL (rabbit [6]; [33]) was 10 mg/kg/day and the LEL (rabbit [6]; [34]) was 75 mg/kg/day. For the same compound, the LOAEL (rabbit [6]; [34]) was 75 mg/kg/day, the NEL (rabbit [6]; [34]) was 10 mg/kg/day and the NOAEL (rabbit [6]; [34]) was 10 mg/kg/day. The LEL (dog [7]; systemic / clinical chemistry / cholesterol / cholesterol + systemic / organ weight / liver / absolute + systemic / organ weight / liver / …) was 5.33 mg/kg/day, the NEL (dog [7]; [35]) was 0.57 mg/kg/day and the NOAEL (dog [7]; [35]) was 5.33 mg/kg/day. For the same compound, the LOAEL (dog [7]; systemic / hematology / anemia / anemia - nos + systemic / pathology microscopic / intestine large / [other] + systemic / pathology …) was 27.8 mg/kg/day, the LEL (rat [8]) was 360 mg/kg/day and the LOAEL (rat [8]) was 360 mg/kg/day. For the same compound, the NOAEL (rat [8]) was 32.5 mg/kg/day.
Compound COC(=O)N(C(=O)N1CO[C@@]2(C(=O)OC)Cc3cc(Cl)ccc3C2=N1)c1ccc(OC(F)(F)F)cc1 [Indoxacarb] has an LEL (rat [9]; [36]) of 4.14 mg/kg/day, an LOAEL (rat [9]; [36]) of 4.14 mg/kg/day and an NEL (rat [9]; [36]) of 2.18 mg/kg/day. It also gave an NOAEL (rat [9]; [36]) of 2.18 mg/kg/day, an LOAEL (rat [9]; [37]) of 2.18 mg/kg/day and an NOAEL (rat [9]; [37]) of 1.11 mg/kg/day. For the same compound, the LEL (rat [9]; [38]) was 1.11 mg/kg/day, the NEL (rat [9]; [38]) was < 1.11 mg/kg/day and the LOAEL (mouse [10]; [39]) was 30 mg/kg/day. It also gave an NOAEL (mouse [10]; [39]) of 16 mg/kg/day, an LEL (mouse [10]; [40]) of 12 mg/kg/day and an NEL (mouse [10]; systemic / pathology microscopic / spleen / pigmentation + systemic / pathology microscopic / spleen / hyperplasia) of 5.5 mg/kg/day. The LEL (rat [11]; [36]) was 500 mg/kg/day, the LOAEL (rat [11]; [36]) was > 1000 mg/kg/day and the NEL (rat [11]; [36]) was 100 mg/kg/day. The NOAEL (rat [11]; [36]) was ≥ 1000 mg/kg/day, the LEL (rat [11]; [37]) was 100 mg/kg/day and the LOAEL (rat [11]; [37]) was 100 mg/kg/day. It also gave an NEL (rat [11]; [37]) of 10 mg/kg/day, an NOAEL (rat [11]; [37]) of 10 mg/kg/day and an LOAEL (rat [12]; [41]) of 2.13 mg/kg/day. For the same compound, the NOAEL (rat [12]; [41]) was 1.04 mg/kg/day, the LEL (rat [12]; [40]) was 0.798 mg/kg/day and the LEL (rat [13]; [42]) was 4.9 mg/kg/day. For the same compound, the LOAEL (rat [13]; [42]) was 7.5 mg/kg/day, the NEL (rat [13]; [43]) was 2.5 mg/kg/day and the NOAEL (rat [13]; [43]) was 3.7 mg/kg/day. For the same compound, the LEL (rat [14]; [41]) was 1.5 mg/kg/day, the LOAEL (rat [14]; [39]) was 6.25 mg/kg/day and the NEL (rat [14]; [39]) was 0.75 mg/kg/day. For the same compound, the NOAEL (rat [14]; [39]) was 3 mg/kg/day, the LOAEL (dog [15]; [44]) was 18 mg/kg/day and the NOAEL (dog [15]; [44]) was 2.3 mg/kg/day. For the same compound, the LEL (dog [15]; [45]) was 1.3 mg/kg/day, the NEL (dog [15]; [45]) was < 1.3 mg/kg/day and the LEL (rabbit [16]; [46]) was 1000 mg/kg/day. It also gave an LOAEL (rabbit [16]; [46]) of 1000 mg/kg/day, an NEL (rabbit [16]; [46]) of 500 mg/kg/day and an NOAEL (rabbit [16]; [46]) of 500 mg/kg/day. The LOAEL (rabbit [16]; [24]) was 1000 mg/kg/day, the LEL (rabbit [16]; [34]) was 1000 mg/kg/day and the NEL (rabbit [16]; [34]) was 500 mg/kg/day. For the same compound, the NOAEL (rabbit [16]; [34]) was 500 mg/kg/day, the LEL (rat [17]; [47]) was 0.56 mg/kg/day and the NEL (rat [17]; [47]) was < 0.56 mg/kg/day. The LOAEL (rat [17]; [39]) was 4.1 mg/kg/day, the NOAEL (rat [17]; [39]) was 1.7 mg/kg/day and the LOAEL (rat [18]; [39]) was 3.78 mg/kg/day. The NOAEL (rat [18]; [39]) was 2.13 mg/kg/day, the LEL (rat [18]; [48]) was 0.76 mg/kg/day and the NEL (rat [18]; [48]) was < 0.76 mg/kg/day. For the same compound, the LEL (mouse [19]) was 13.8 mg/kg/day, the LOAEL (mouse [19]) was 13.8 mg/kg/day and the NEL (mouse [19]) was 2.63 mg/kg/day. For the same compound, the NOAEL (mouse [19]) was 2.63 mg/kg/day, the LEL (dog [20]) was 19 mg/kg/day and the LOAEL (dog [20]) was 19 mg/kg/day. The NEL (dog [20]) was 5 mg/kg/day, the NOAEL (dog [20]) was 5 mg/kg/day and the LEL (rat [21]; [36]) was 4 mg/kg/day. The LOAEL (rat [21]; [36]) was 4 mg/kg/day, the NEL (rat [21]; [36]) was 2 mg/kg/day and the NOAEL (rat [21]; [36]) was 2 mg/kg/day. It also gave an LEL (rat [21]; [37]) of 4 mg/kg/day, an LOAEL (rat [21]; [37]) of 4 mg/kg/day and an NEL (rat [21]; [37]) of 2 mg/kg/day. For the same compound, the NOAEL (rat [21]; [37]) was 2 mg/kg/day.
